Source: paper PMC10830684, “Effect of Oregon grape root extracts on P-glycoprotein mediated transport in in vitro cell lines” (Journal of Pharmacy & Pharmaceutical Sciences, 2024)

How the values were obtained:
Caco-2 cells = assay: LDH leakage cytotoxicity assay in Caco-2 cells; format: cell-based, human; settings: 4 hours exposure
Text: (§1) We initiated cytotoxicity experiments with the Caco-2, MDCKII-MDR1 and MDCKII-wild type cells on Day 7 (Caco-2) and Day 4 (MDCKII-MDR1 and MDCKII-wild type) after the initial plating of the cells at 2.5 × 10^3 cells/well in 48-well plates (Becton Dickinson, Franklin Lakes, NJ, USA). See details of preparation for the cytotoxicity experiments in Supplementary Material.
We initiated cytotoxicity experiments with the Caco-2, MDCKII-MDR1 and MDCKII-wild type cells on Day 7 (Caco-2) and Day 4 (MDCKII-MDR1 and MDCKII-wild type) after the initial plating of the cells at 2.5x10^3 cells/well in 48-well plates (Becton Dickinson, Franklin Lakes, NJ, USA). Stock solutions of 10 mM berberine or berbamine were prepared by dissolving the compounds in DMSO (berberine) or distilled water (berbamine).
(§2) The LDH enzymatic activities were assayed using the method of Mitchell et al.(1). […] Enzyme leakage into the medium was expressed as the percentage of total cellular LDH. The MTT (3-(4,5-dimethythiazole-2yl)-2,5-diphenyl tetrazolium bromide) reduction assay was done according to Mosmann (2). This assay was conducted immediately with the same cells used in the LDH study. The results were expressed as the percentage of negative controls.

MDCKII-MDR1 cells = assay: MTT cytotoxicity assay in MDCKII-MDR1 cells; format: cell-based, Canine; settings: 4 hours exposure
Text: as §1
(§3) We initiated cytotoxicity experiments with the Caco-2, MDCKII-MDR1 and MDCKII-wild type cells on Day 7 (Caco-2) and Day 4 (MDCKII-MDR1 and MDCKII-wild type) after the initial plating of the cells at 2.5x10^3 cells/well in 48-well plates (Becton Dickinson, Franklin Lakes, NJ, USA). Stock solutions of 10 mM berberine or berbamine were prepared by dissolving the compounds in DMSO (berberine) or distilled water (berbamine). […] The final concentration of DMSO was 0.003% (v/v), 0.03% (v/v), 0.3% (v/v), 1% (v/v), 1.5% (v/v), and 3% (v/v) DMSO/culture medium for 0.3 μM, 3 μM, 30 μM, 100 μM, ,150 μM, and 300 μM, respectively. The final concentration of ethanol was 0.15% (v/v) ethanol/culture medium. Ketoconazole (75 µM) was used as a positive control and no treatment (medium alone) was used as a negative control for each experiment.
as §2

MDCKII wild-type cells [1] = assay: MTT cytotoxicity assay in MDCKII wild-type cells; format: cell-based, Canine; settings: MDCKII-WT cells, 4 hours exposure
Text: as §1, §3, §2

MDCKII wild-type cells [2] = assay: Effect on 3H-CsA and 3H-digoxin transport in MDCKII wild-type cells; settings: MDCKII-WT; for Papp (B to A) of 3H-CsA: 0.5 µM 3H-CsA; for Papp (B to A) of 3H-digoxin: 0.5 µM 3H-digoxin
[3] = target: P-glycoprotein (MDCKII-MDR1 cells) (Homo sapiens, UniProt P08183); assay: Transepithelial transport of berberine and berbamine across MDCKII-MDR1 cells; format: in vitro ADME; parameters: expressed in transfected cells; host or cells: MDCKII-MDR1 (Madin-Darby canine kidney II cells overexpressing MDR1); settings: 100 µM
Sequence of P-glycoprotein (MDCKII-MDR1 cells) (P08183 whole entry): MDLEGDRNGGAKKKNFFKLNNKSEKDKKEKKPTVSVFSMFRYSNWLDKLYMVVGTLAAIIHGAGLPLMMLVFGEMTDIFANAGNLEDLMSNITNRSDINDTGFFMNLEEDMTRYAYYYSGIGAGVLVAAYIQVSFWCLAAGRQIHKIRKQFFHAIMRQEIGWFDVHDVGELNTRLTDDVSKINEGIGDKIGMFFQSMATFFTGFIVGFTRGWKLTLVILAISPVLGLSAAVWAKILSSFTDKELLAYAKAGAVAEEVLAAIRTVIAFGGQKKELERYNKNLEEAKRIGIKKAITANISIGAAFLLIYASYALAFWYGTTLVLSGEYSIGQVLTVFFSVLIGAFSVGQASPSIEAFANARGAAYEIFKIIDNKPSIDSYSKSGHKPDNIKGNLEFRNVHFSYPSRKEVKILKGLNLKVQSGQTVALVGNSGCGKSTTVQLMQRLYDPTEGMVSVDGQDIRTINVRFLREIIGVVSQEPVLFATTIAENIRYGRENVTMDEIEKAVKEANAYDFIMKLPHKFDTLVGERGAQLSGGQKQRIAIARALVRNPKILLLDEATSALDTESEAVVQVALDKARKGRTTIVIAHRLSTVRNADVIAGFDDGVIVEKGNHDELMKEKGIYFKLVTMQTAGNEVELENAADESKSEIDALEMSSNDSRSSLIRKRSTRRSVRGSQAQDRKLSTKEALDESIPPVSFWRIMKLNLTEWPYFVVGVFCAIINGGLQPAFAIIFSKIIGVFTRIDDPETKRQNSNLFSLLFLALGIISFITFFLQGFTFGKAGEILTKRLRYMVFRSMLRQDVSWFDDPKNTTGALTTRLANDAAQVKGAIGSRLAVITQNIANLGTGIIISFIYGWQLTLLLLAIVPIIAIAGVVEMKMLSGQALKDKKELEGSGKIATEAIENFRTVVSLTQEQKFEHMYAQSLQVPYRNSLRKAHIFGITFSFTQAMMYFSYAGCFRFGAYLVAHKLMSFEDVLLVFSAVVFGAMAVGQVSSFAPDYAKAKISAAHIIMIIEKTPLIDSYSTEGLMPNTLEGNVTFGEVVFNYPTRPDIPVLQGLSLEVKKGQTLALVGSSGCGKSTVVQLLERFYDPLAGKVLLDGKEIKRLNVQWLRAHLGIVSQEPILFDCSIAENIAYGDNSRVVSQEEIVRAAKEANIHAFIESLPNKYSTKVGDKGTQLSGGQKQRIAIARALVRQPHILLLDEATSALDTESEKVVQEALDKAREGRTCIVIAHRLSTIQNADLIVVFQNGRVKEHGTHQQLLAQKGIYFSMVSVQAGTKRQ
Procedure: Transport of ^3H-CsA and ^3H-digoxin (0.5 µM and 1.0 µCi), MDR1 substrates, were performed using transport buffer consisting of HBSS with 10 mM HEPES and 25 mM D-glucose at a pH of 6.8 for the apical (A) compartment and 7.4 for the basolateral (B) compartment. Experiments were performed at 37°C, 5% CO2, and 95% relative humidity. Cells in the Transwell® inserts were washed 3 times with a transport buffer and allowed to equilibrate for 30 min prior to the addition of test compounds. […] To evaluate the efflux mechanism involved with berberine and berbamine, 100 µM of berberine and berbamine were placed in the donor chamber and 100 µL samples were collected in the receiver chamber at 0, 0.5, 1.0, 1.5, 2.0, 2.5, and 3.0 h and analyzed by HPLC. Each experiment was performed in duplicate and repeated for each condition tested. For experiments performed in “non-sink” conditions, 100 µL aliquots were taken from the donor and receiver chambers at the beginning and from the receiver chamber at 0.5, 1.0, 1.5, 2.0, 2.5, and 3.0 h. An equal volume of 100 µL was replaced in the chamber at each sample time point. […] A 100 µL sample was taken from the donor chamber at 3 h in order to calculate the mass balance of radioactivity to determine if adsorption to the cell culture transport apparatus had occurred. Each sample was placed in 0.9 mL of scintillation fluor (Cytoscint ES, ICN, Cosa Mesa, CA, USA) and read on a Beckman LS 6500 (Palo Alto, CA, USA) scintillation counter for ^3H activity. […]
The apparent permeability (Papp) was calculated using the following equation [40]: Papp=dQ/dt×1/A×C0
Where A is the surface area of the monolayer (4.71 cm^2) and C0 is the initial concentration of radiolabeled probe substrate in the donor compartment. dQ/dt is the slope of the steady-state rate constant. The efflux ratio was determined by dividing the Papp in the B to A direction by the Papp in the A to B direction: Efflux ratio=PappB to A/PappA to B […]

COc1ccc2cc3[n+](cc2c1OC)CCc1cc2c(cc1-3)OCO2.[Cl-] [Berberine, Berberine chloride]
LDH assay (Caco-2 cells; 150 µM): 25.93 ± 4.78%
LDH assay (Caco-2 cells; 300 µM): 44.88 ± 2.09%
MTT assay (MDCKII-MDR1 cells; 0.03 µM): □ (%MTT reduction is not significantly decreased compared with the negative control)
MTT assay (MDCKII-MDR1 cells; 3.0 µM): □ (%MTT reduction is not significantly decreased compared with the negative control)
MTT assay (MDCKII-MDR1 cells; 100 µM): □ (%MTT reduction is not significantly decreased compared with the negative control)
MTT assay (MDCKII-MDR1 cells; 150 µM): □ (%MTT reduction is not significantly decreased compared with the negative control)
MTT assay (MDCKII-MDR1 cells; 300 µM): □ (%MTT reduction is not significantly decreased compared with the negative control)
MTT assay (MDCKII wild-type cells [1]; 0.03 µM): □ (%MTT reduction is not significantly decreased compared with the negative control)
MTT assay (MDCKII wild-type cells [1]; 3.0 µM): □ (%MTT reduction is not significantly decreased compared with the negative control)
MTT assay (MDCKII wild-type cells [1]; 100 µM): □ (%MTT reduction is not significantly decreased compared with the negative control)
MTT assay (MDCKII wild-type cells [1]; 150 µM): □ (%MTT reduction is not significantly decreased compared with the negative control)
MTT assay (MDCKII wild-type cells [1]; 300 µM): 24.82 ± 15.91%
Papp (B to A) of 3H-CsA (MDCKII wild-type cells [2]; 10 µM compound): 4.07 ± 0.56 x 10^−6 cm/s
Papp (B to A) of 3H-digoxin (MDCKII wild-type cells [2]; 10 µM compound): 7.55 ± 0.46 x 10^−6 cm/s
Papp (B to A) of 3H-CsA (MDCKII wild-type cells [2]; 30 µM compound): 4.34 ± 0.29 x 10^−6 cm/s
Papp (B to A) of 3H-digoxin (MDCKII wild-type cells [2]; 30 µM compound): 6.95 ± 0.71 x 10^−6 cm/s
Papp A to B direction [3]: 1.3e-06 cm/s
Papp B to A direction [3]: 1.56e-05 cm/s
fold increase of Papp B to A compared with A to B [3]: approximately 12 fold
